Where a name gives a salt, the structure may show the parent alone.
How the values were obtained:
CML = details: newly diagnosed patients with CML-CP; cited from earlier work
[1] = Phase 1 dose-escalation study: safety, adverse events; type: in vivo
Ph-positive CML or ALL = assay: Phase 1 study: cytogenetic and hematologic response; type: in vivo, human
[2] = Phase 1 study: pharmacokinetics in patients; type: in vivo, human; details: for half-life: Mean half-life
[3] = cited from earlier work
Bcr-Abl F317L = details: cited from earlier work
Bcr-Abl F317V = details: cited from earlier work
Lyn kinase = details: cited from earlier work
[4] = target: other Src-family member kinases; details: cited from earlier work
[5] = 30 mg/kg dose level, 4-week; ref data on file, 24; cited from earlier work
unmutated Bcr-Abl = details: cited from earlier work

Cc1ccc(NC(=O)c2ccc(CN3CCN(C)CC3)cc2)cc1Nc1nccc(-c2cccnc2)n1 [imatinib, imatinib mesylate]
Estimated 5 to 7-year survival rates (CML): over 90%

Cc1ccc(NC(=O)c2ccc(CN3CC[C@H](N(C)C)C3)c(C(F)(F)F)c2)cc1Nc1nccc(-c2cncnc2)n1 [INNO-406]
Adverse events, NCI category infection ([1]; % of patients, N = 56): 33.9% | Deaths since beginning treatment ([1]; all related to leukemia progression): Five | Adverse events, NCI category blood/bone marrow ([1]; human, in vivo): 25.0% | Adverse events, NCI category cardiac general ([1]; human, in vivo): 12.5% | Adverse events, NCI category constitutional symptoms ([1]; human, in vivo): 48.2% | Adverse events, NCI category dermatology/skin ([1]; human, in vivo): 28.6% | Adverse events, NCI category gastrointestinal ([1]; human, in vivo): 64.3% | Adverse events, NCI category hemorrhage/bleeding ([1]; human, in vivo): 10.7% | Adverse events, NCI category lymphatics ([1]; human, in vivo): 25.0% | Adverse events, NCI category metabolic/laboratory ([1]; human, in vivo): 73.2% | Adverse events, NCI category musculoskeletal/soft tissue ([1]; human, in vivo): 10.7% | Adverse events, NCI category neurology ([1]; human, in vivo): 23.2% | Adverse events, NCI category pain ([1]; human, in vivo): 58.9% | Adverse events, NCI category pulmonary/upper respiratory ([1]; human, in vivo): 17.9% | Drug-related acute renal failure ([1]; human, in vivo): 2 (4) No. (%) | Drug-related elevated creatinine ([1]; human, in vivo): 1 (2) No. (%) | Drug-related hypertension ([1]; human, in vivo): 1 (2) No. (%) | Drug-related hyperuricemia ([1]; human, in vivo): 1 (2) No. (%) | Drug-related increased ALT ([1]; human, in vivo): 9 (16) No. (%) | Drug-related increased GGT ([1]; human, in vivo): 2 (4) No. (%) | Drug-related increased bilirubin ([1]; human, in vivo): 2 (4) No. (%) | Drug-related intrahepatic cholestasis ([1]; human, in vivo): 1 (2) No. (%) | Drug-related prolonged QTc interval ([1]; human, in vivo): 1 (2) No. (%) | Drug-related thrombocytopenia ([1]; human, in vivo): 1 (2) No. (%) | Grade 3 thrombocytopenia, drug- and non-drug-related ([1]; human, in vivo): 2 patients | Grade 4 thrombocytopenia, drug- and non-drug-related ([1]; human, in vivo): 3 patients | QTc >500 msec ([1]; human, in vivo): 1 patient | QTcB increased to grade 2 ([1]; human, in vivo): 4 patients | QTcF increased to grade 2 ([1]; human, in vivo): 1 patient | Pleural or pericardial effusions ([1]; in vivo): No cases | Recommended phase 2 dose based on DLT and MTD ([1]; orally BID): 240 mg | Minimal-Minor Cytogenetic Response (Ph-positive CML or ALL; 60 mg QD, N = 3): 1 (33) n (%) | Complete Cytogenetic Response (Ph-positive CML or ALL; 120 mg BID, N = 6): 1 (17) n (%) | Complete Cytogenetic Response (Ph-positive CML or ALL; 120 mg QD, N = 6): 1 (17) n (%) | Complete Cytogenetic Response (Ph-positive CML or ALL; 240 mg BID, N = 17): 1 (6) n (%) | Partial Cytogenetic Response (Ph-positive CML or ALL; 240 mg BID, N = 17): 2 (12) n (%) | Minimal-Minor Cytogenetic Response (Ph-positive CML or ALL; 360 mg BID, N = 7): 1 (14) n (%) | Partial Cytogenetic Response (Ph-positive CML or ALL; 480 mg BID, N = 5): 1 (20) n (%) | Response in patients with T315I mutations (Ph-positive CML or ALL; 4 patients with T315I mutations): None | Complete Cytogenetic Response (Ph-positive CML or ALL; Total, all doses, N = 56): 3 (5) n (%) | Minimal-Minor Cytogenetic Response (Ph-positive CML or ALL; Total, all doses, N = 56): 2 (4) n (%) | Partial Cytogenetic Response (Ph-positive CML or ALL; Total, all doses, N = 56): 3 (5) n (%) | Complete and partial hematologic responses (Ph-positive CML or ALL; all doses): 3 patients | Major cytogenetic response rate (Ph-positive CML or ALL; all patients enrolled (6 of 56 patients)): 11% | Major cytogenetic responses (Ph-positive CML or ALL; patients treated with doses of 240 mg BID or greater): 4 | Responses (Ph-positive CML or ALL; patients with CML-AP, CML-BP, or Ph-positive ALL): No responses | Major cytogenetic response rate (Ph-positive CML or ALL; patients with CML-CP (6 of 31 patients)): 19% | Major cytogenetic responses (Ph-positive CML or ALL; patients with CML-CP, all doses): 6 patients | Mean time to achieve peak concentration ([2]; 240 mg BID cohort, SD = 0.5): 1.3 h | Mean (SD) accumulation factor ([2]; BID dosing): 2.73 (4.96) | Accumulation ([2]; day 15, 360 and 480 mg BID cohorts): accumulation of INNO-406 was observed | Dose proportionality of Cmax and AUC ([2]; entire study population, for AUC not demonstrable with BID dosing): dose proportional | Cmax ([2]; human, in vivo, oral, 240 mg): 487 ng/mL | half-life ([2]; human, in vivo, oral, BID dosing, day 1, SD 0.817): 119 min | half-life ([2]; human, in vivo, oral, BID dosing, day 15, SD 0.751): 137 min | In vivo potency relative to imatinib [3]: at least 10 times | Sensitivity of mutation in vitro (Bcr-Abl F317L): sensitive | Sensitivity of mutation in vitro (Bcr-Abl F317V): sensitive | Kinase activity (Lyn kinase): specific Lyn kinase activity | Kinase activity [4]: no or limited activity | Deaths [5]: no deaths occurred | Inhibition of autophosphorylation relative to imatinib (unmutated Bcr-Abl): more potently inhibited

Reference: PMC2876208 (Cancer, 2010)
